The record followed here is patent publication US20170190671A1, “BIS(ARYL)CATECHOL DERIVATIVES AS HERBICIDES” (E I DU PONT DE NEMOURS AND COMPANY, priority 2014, published 2017).

Each structure is given as a SMILES string.

Holding throughout (experiment): Test C postemergence
What all share (type): in vivo
Conditions in all cases: scale 0 to 100

Experiment [1] concerns pigweed (Amaranthus retroflexus). From the text: (§1) Seeds of plant species selected from blackgrass (Alopecurus myosuroides), Italian ryegrass (Lolium multiflorum), winter wheat (Triticum aestivum), galium (catchweed bedstraw, Galium aparine), corn (Zea mays), large (Lg) crabgrass (Digitaria sanguinalis), giant foxtail (Setaria faberii), johnsongrass (Sorghum halepense), lambsquarters (Chenopodium album), morningglory (Ipomoea coccinea), yellow nutsedge (Cyperus esculentus), pigweed (Amaranthus retroflexus), ragweed (common ragweed, Ambrosia elatior), soybean (Glycine max), barnyardgrass (Echinochloa crus-galli), oilseed rape (Brassica napus), waterhemp (common waterhemp, Amaranthus rudis), and velvetleaf (Abutilon theophrasti) were planted into a blend of loam soil and sand and treated preemergence with test chemicals formulated in a non-phytotoxic solvent mixture which included a surfactant.
(§2) At the same time, plants selected from these crop and weed species and also chickweed (common chickweed, Stellaria media), kochia (Kochia scoparia), and wild oat (Avena fatua), were planted in pots containing Redi-Earth® planting medium (Scotts Company, 14111 Scottslawn Road, Marysville, Ohio 43041) comprising spaghnum peat moss, vermiculite, wetting agent and starter nutrients and treated with postemergence applications of test chemicals formulated in the same manner. Plants ranged in height from 2 to 18 cm (1- to 4-leaf stage) for postemergence treatments. Treated plants and controls were maintained in a greenhouse for 13 to 15 days, after which time all species were compared to controls and visually evaluated. Plant response ratings, summarized in Table C, are based on a scale of 0 to 100 where 0 is no effect and 100 is complete control. A dash (-) response means no test result.

The next experiment concerns kochia (Kochia scoparia).
Source text: as §1, §2

The subject of experiment [2] is yellow nutsedge (Cyperus esculentus).
Source text: as §1, §2

For experiment [3], the system named is chickweed (common chickweed, Stellaria media).
Source text: as §1, §2

The test system of experiment [4] is waterhemp (common waterhemp, Amaranthus rudis).
Source text: as §1, §2

In experiment [5] the test system is galium (catchweed bedstraw, Galium aparine).
Source text: as §1, §2

Another experiment deals with wild oat (Avena fatua).
Source text: as §1, §2

For the molecule `Fc1ccc(F)c(Oc2ncc(C(F)(F)F)cn2)c1Oc1ncc(Cl)cn1` [Compound 25], the “Plant response rating, Pigweed” value is given as 75 in experiment [1] (8 g ai/ha, postemergence); 85 in experiment [1] (Postemergence, 31 g ai/ha); 95 in experiment [1] (Postemergence, 62 g ai/ha). Besides, the “Plant response rating, Kochia” value is 0 in the experiment on kochia (Kochia scoparia) (8 g ai/ha, postemergence); 50 in the experiment on kochia (Kochia scoparia) (Postemergence, 16 g ai/ha); 60 with kochia (Kochia scoparia) (Postemergence, 31 g ai/ha); 75 with kochia (Kochia scoparia) (Postemergence, 62 g ai/ha). Besides, the “Plant response rating, Nutsedge, Yellow” value in experiment [2] (8 g ai/ha, postemergence) worked out at 0; in experiment [2] (Postemergence, 31 g ai/ha), 5; in experiment [2] (Postemergence, 62 g ai/ha) it was 10. Besides, the “Plant response rating, Chickweed” value in experiment [3] (8 g ai/ha, postemergence) is on record as 0; in experiment [3] (Postemergence, 16 g ai/ha) it was 20; in experiment [3] (Postemergence, 31 g ai/ha), 50; in experiment [3] (Postemergence, 62 g ai/ha) it was 60. Also, the “Plant response rating, Waterhemp” value in experiment [4] (8 g ai/ha, postemergence) is given as 90; in experiment [4] (Postemergence, 31 g ai/ha), 50; in experiment [4] (Postemergence, 62 g ai/ha), 75. The “Plant response rating, Galium” value in experiment [5] (8 g ai/ha, postemergence) is on record as 50; in experiment [5] (Postemergence, 16 g ai/ha) it was 55; in experiment [5] (Postemergence, 31 g ai/ha), 80; in experiment [5] (Postemergence, 62 g ai/ha), 80. The “Plant response rating, Oat, Wild” value in the experiment on wild oat (Avena fatua) (8 g ai/ha, postemergence) worked out at 5; in the experiment on wild oat (Avena fatua) (Postemergence, 31 g ai/ha) it was 10; in the experiment on wild oat (Avena fatua) (Postemergence, 62 g ai/ha) it was 15.
